The text below walks through data of patent publication US20220220135A1 (BAR-ILAN UNIVERSITY, priority 2019, published 2022).

The Ki is the dissociation constant of the complex between target and ligand, obtained from inhibition or displacement. By inhibition is commonly meant the drop in the measured response relative to a control, in per cent.

Experiment [1] deals with T1, NPP1 (Homo sapiens, UniProt P22413).
T1 sequence (P22413 1-925): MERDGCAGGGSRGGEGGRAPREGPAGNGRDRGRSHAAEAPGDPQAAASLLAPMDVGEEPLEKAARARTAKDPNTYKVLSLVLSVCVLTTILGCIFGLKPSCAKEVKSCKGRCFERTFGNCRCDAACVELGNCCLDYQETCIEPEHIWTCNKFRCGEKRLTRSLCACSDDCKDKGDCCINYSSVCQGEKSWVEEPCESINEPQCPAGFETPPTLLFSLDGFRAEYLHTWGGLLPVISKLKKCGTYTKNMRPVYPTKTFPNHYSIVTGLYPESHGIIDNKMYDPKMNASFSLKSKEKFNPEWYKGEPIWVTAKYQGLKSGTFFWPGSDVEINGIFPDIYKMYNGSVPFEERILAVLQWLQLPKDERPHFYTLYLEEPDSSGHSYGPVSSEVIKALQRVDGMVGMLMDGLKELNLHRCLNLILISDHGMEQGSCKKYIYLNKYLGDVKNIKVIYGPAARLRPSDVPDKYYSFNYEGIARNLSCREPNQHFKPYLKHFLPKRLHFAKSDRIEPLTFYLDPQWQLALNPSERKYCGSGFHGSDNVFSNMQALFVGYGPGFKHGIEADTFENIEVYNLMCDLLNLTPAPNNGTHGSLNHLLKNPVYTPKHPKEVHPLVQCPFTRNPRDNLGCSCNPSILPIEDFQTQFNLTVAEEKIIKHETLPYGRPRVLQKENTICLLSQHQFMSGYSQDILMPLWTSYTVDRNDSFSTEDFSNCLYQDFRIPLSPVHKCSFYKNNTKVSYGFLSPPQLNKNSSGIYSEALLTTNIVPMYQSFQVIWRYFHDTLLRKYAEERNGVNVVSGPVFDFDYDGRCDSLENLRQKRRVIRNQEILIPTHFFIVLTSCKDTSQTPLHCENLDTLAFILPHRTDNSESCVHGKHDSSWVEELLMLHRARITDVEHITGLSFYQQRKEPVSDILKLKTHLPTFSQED
Nature of the experiment: Inhibition of human NPP1, ATP as substrate (analogues 9-12). The experiment is classed as biochemical. To be noted: ATP (100 μM) as the substrate. As to the method:
FIG. 2: Inhibition of NTPDases and NPPs by analogues 9-12 using as substrates ATP (100 μM) for NTPDase1,2,3,8 and pNP-TMP (100 μM) for NPP1,3 (Panel A); and ATP (100 μM) was used as the substrate for NPP1 (Panel B);
At least 2 independent experiments were performed. In panel A, the activity with 100 μM ATP was set as 100%, which was 287±31, 395±67, 278±22, 119±26 nmol of Pi·min−1·mg of protein−1 for human NTPDase1, -2, -3 and -8, respectively, and the activity with 100 μM pNP-TMP was set as 100% which was 67±5, 21±1 nmol of p-nitrophenol·min−1·mg of protein−1 for human NPP1 and NPP3, respectively. In panel B, the activity with 100 μM ATP was set as 100% which was 34±7 nmol of PPi·min−1·mg of protein−1 for NPP1.

The target in experiment [2] is T2, human CD39 (Homo sapiens, UniProt P49961).
T2 sequence (P49961 1-510): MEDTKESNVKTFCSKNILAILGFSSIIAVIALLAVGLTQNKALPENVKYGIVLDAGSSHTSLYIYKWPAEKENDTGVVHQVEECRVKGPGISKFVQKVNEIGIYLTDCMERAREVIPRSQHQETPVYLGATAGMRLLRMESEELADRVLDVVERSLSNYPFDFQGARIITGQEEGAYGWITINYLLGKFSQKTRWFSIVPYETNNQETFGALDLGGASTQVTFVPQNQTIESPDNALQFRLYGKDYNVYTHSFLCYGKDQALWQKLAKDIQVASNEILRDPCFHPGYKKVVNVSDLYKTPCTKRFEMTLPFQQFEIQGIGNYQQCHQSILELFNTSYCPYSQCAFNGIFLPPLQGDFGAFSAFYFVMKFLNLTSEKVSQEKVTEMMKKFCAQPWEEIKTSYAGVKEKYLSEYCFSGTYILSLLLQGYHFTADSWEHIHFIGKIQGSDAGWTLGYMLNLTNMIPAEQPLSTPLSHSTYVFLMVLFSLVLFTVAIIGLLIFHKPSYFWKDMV
The experiment in a line: Inhibition of human CD39, 0.5 μM PSB-170621A as substrate. The experiment is classed as biochemical. To be noted: 0.5 μM PSB-170621A as a substrate; n = 3.

The target of experiment [3] is T1, NPP1. Nature of the experiment: Inhibition of human NPP1, 100 μM p-Nph-5′-TMP as substrate (Tables 5, 6).
For experiment [4], the target named is T3, rat CD73 (Rattus norvegicus, UniProt P21588).
T3 sequence (P21588 29-551): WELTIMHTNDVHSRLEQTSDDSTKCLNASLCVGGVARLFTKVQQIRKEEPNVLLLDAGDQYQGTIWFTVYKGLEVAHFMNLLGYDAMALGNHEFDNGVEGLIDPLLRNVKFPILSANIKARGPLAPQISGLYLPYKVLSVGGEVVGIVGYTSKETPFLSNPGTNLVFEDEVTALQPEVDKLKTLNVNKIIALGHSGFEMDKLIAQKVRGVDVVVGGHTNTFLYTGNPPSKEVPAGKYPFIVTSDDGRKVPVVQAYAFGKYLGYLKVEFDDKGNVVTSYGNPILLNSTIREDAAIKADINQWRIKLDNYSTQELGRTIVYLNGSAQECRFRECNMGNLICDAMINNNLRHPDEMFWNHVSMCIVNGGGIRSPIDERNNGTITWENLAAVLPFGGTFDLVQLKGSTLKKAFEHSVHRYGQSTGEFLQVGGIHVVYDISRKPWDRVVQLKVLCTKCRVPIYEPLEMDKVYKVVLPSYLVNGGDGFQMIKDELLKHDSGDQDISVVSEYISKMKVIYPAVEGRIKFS
The experiment in a line: Inhibition of rat CD73, 5 μM [3H]AMP as substrate. To be noted: 5 μM [3H]AMP as a substrate; n = 3. The class given is biochemical.

Experiment [5] addresses T1, NPP1. Nature of the experiment: Inhibition of human NPP1, 100 μM ATP as substrate (FIG. 9, Table 6). The experiment is classed as biochemical. To be noted: ATP (100 μM) as a substrate. How it is done: Each experiment was performed in triplicates;

Consider `O=c1ccn([C@@H]2O[C@H](COP(=S)(S)OP(=O)(O)OP(=O)(O)OP(=S)(S)OC[C@H]3O[C@@H](n4ccc(=O)[nH]c4=O)[C@H](O)[C@@H]3O)[C@@H](O)[C@H]2O)c(=O)[nH]1` (stereo partly shown) [Analogue 12], for which, in experiment [1], the “inhibition of human NPP1 activity” value is on record as “effectively blocked”.
For `Nc1ncnc2c1ncn2COCCOP(=S)(S)OP(=O)(O)O` (stereo not shown) [compound 106], the “% inhibition ± SEM, human CD39” value in experiment [2] stood at 14 ± 1%. Further, the inhibitory constant (Ki) in experiment [3] is 1810 nM; in experiment [5] (read-out: Ki (μM ± SD), human NPP1 (converted)), 0.305 µM. Besides, the inhibition at 10 µM in experiment [3] (read-out: % inhibition ± SEM at 10 μM, human NPP1) worked out at 67 ± 1%; in experiment [5] (10 μM, n = 3, read-out: % inhibition ± SEM at 10 μM, human NPP1) it was 68 ± 1%. Moreover, the “% inhibition ± SEM, rat CD73” value in experiment [4] is “n.i.d”.
